Reference: patent US10988459B2 (priority 2015, dated 2021)

Biological target: human RIP1 kinase domain (2-375) (Homo sapiens (Human), UniProt Q13546)
Assay: biochemical
Assay type: biochemical
Settings: Table 5; apparent Ki (Morrison tight-binding fit); 50 nM RIP1 kinase domain, 50 uM ATP, 2 hours incubation; read-out: Ki
Summary of the method: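 50 nM purified kinase domain from baculovirus-infected insect cells, incubated 2 h with compound in 50 mM Hepes pH 7.5, 30 mM MgCl2, 1 mM DTT, 50 uM ATP, 0.002% Brij-35, 0.5% DMSO. ADP formation read by Transcreener FP at 633 nm excitation. Ki^app fitted with the Morrison tight-binding equation.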

Chain of human RIP1 kinase domain (2-375) (Q13546 2-375): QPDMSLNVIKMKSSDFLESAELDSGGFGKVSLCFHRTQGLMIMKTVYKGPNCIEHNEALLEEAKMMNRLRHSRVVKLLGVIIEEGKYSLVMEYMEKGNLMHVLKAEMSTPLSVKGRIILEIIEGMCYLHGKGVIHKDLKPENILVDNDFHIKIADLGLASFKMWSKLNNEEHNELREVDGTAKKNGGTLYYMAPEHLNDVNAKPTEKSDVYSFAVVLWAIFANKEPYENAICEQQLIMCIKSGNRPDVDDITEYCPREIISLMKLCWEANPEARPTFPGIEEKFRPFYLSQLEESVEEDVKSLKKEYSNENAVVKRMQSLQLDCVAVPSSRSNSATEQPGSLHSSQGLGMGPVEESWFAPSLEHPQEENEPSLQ

Ki | SMILES
530 nM | CN1C(=O)[C@@H](NC(=O)c2ncn(Cc3ccccc3)n2)CCn2nc(Cn3ccnc3)cc21 [Example 707, (S)-1-benzyl-N-[2-(imidazol-1-ylmethyl)-4-methyl-5-oxo-7,8-dihydro-6H-pyrazolo[1,5-a][1, 3]diazepin-6-yl]-1,2,4-triazole-3-carboxamide]
4 nM | CN1C(=O)[C@@H](NC(=O)c2cc3c(-c4ccccc4F)cccn3n2)COc2ccccc21 [Example 708, 4-(2-fluorophenyl)-N-[(3S)-5-methyl-4-oxo-2,3-dihydro-1,5-benzoxazepin-3-yl]pyrazolo[1,5-a]pyridine-2-carboxamide]
34 nM | CN1C(=O)[C@@H](NC(=O)c2cc3n(n2)CCC[C@@H]3c2ccccc2F)COc2ccccc21 [Example 709, (4R)-4-(2-fluorophenyl)-N-[(3S)-5-methyl-4-oxo-2,3-dihydro-1,5-benzoxazepin-3-yl]-4,5,6,7-tetrahydropyrazolo[1,5-a]pyridine-2-carboxamide]
9 nM | CN1C(=O)[C@@H](NC(=O)c2cc3n(n2)CCC[C@H]3c2ccccc2F)COc2ccccc21 [Example 710, (4S)-4-(2-fluorophenyl)-N-[(3S)-5-methyl-4-oxo-2,3-dihydro-1,5-benzoxazepin-3-yl]-4,5,6,7-tetrahydropyrazolo[1,5-a]pyridine-2-carboxamide]
73 nM | CN1C(=O)[C@@H](NC(=O)c2cc3c(cn2)cnn3CCC(F)F)COc2ccccc21 [Example 711, 1-(3,3-difluoropropyl)-N-[(3S)-5-methyl-4-oxo-2,3-dihydro-1,5-benzoxazepin-3-yl]pyrazolo[4,3-c]pyridine-6-carboxamide]
5 nM | CN1C(=O)[C@@H](NC(=O)c2cc3c(-c4ccccc4)cccn3n2)COc2ccccc21 [Example 713, 4-phenyl-N-[(3S)-5-methyl-4-oxo-2,3-dihydro-1,5-benzoxazepin-3-yl]pyrazolo[1,5-a]pyridine-2-carboxamide]
13 nM | Cc1cc2n(n1)CC[C@H](NC(=O)c1cc3c(-c4ccccc4)cccn3n1)C(=O)N2C [Example 714, (S)—N-(2,4-dimethyl-5-oxo-5,6,7,8-tetrahydro-4H-pyrazolo[1,5-a][1,3]diazepin-6-yl)-4-phenylpyrazolo[1,5-a]pyridine-2-carboxamide]
206 nM | CN1C(=O)[C@@H](NC(=O)c2nc3n(n2)CCNC3c2ccccc2)COc2ccccc21 (stereo partly drawn) [Example 723, N-[(3S)-5-methyl-4-oxo-2,3-dihydro-1,5-benzoxazepin-3-yl]-8-phenyl-5,6,7,8-tetrahydro-[1,2,4]triazolo[1,5-a]pyrazine-2-carboxamide]
300 nM | CN1C(=O)[C@@H](NC(=O)c2nc3n(n2)CCNC3C(F)(F)F)COc2ccccc21 (stereo partly drawn) [Example 731, N—((S)-5-methyl-4-oxo-2,3,4,5-tetrahydrobenzo[b][1,4]oxazepin-3-yl)-8-(trifluoromethyl)-5,6,7,8-tetrahydro-[1,2,4]triazolo[1,5-a]pyrazine-2-carboxamide]

Same assay, conditions: tight-binding apparent inhibition constant; human RIP1 kinase domain (2-375) 50 nM, 50 uM ATP, 2 hours; read-out: Ki

SMILES | Ki
CN1C(=O)[C@@H](NC(=O)c2nc3n(n2)CCC32CCOC2)COc2ccccc21 (stereo partly drawn) [Example 645, N-[(3S)-5-methyl-4-oxo-2,3-dihydro-1,5-benzoxazepin-3-yl]spiro[5,6-dihydropyrrolo[1,2-b][1,2,4]triazole-7,3′-tetrahydrofuran]-2-carboxamide] | 1200 nM
Cc1cc2n(n1)CC[C@H](NC(=O)c1nc3n(n1)CCC31CCOC1)C(=O)N2C (stereo partly drawn) [Example 646, N-[(6S)-2,4-dimethyl-5-oxo-7,8-dihydro-6H-pyrazolo[1,5-a][1,3]diazepin-6-yl]spiro[5,6-dihydropyrrolo[1,2-b][1,2,4]triazole-7,3′-tetrahydrofuran]-2-carboxamide] | 9300 nM
Cc1cccnc1Cn1cnc(C(=O)N[C@H]2CCn3nccc3N(C)C2=O)n1 [Example 647, 1-[(3-methyl-2-pyridyl)methyl]-N-(6S)-4-methyl-5-oxo-7,8-dihydro-6H-pyrazolo[1,5-a][1,3]diazepin-6-yl-1,2,4-triazole-3-carboxamide] | 160 nM
Cc1cccnc1Cn1cnc(C(=O)N[C@H]2CCn3nc(C4CC4)cc3N(C)C2=O)n1 [Example 648] | 280 nM
Cc1cc2n(n1)CC[C@H](NC(=O)c1nc3n(n1)CCN3c1c(F)cccc1F)C(=O)N2C [Example 649, 4-(2,6-difluorophenyl)-N-[(6S)-2,4-dimethyl-5-oxo-7,8-dihydro-6H-pyrazolo[1,5-a][1,3]diazepin-6-yl]-5,6-dihydroimidazo[1,2-b][1,2,4]triazole-2-carboxamide] | 140 nM
CN1C(=O)[C@@H](NC(=O)c2ncn(Cc3ccccn3)n2)CCn2nccc21 [Example 650, 1-(2-pyridylmethyl)-N-(6S)-4-methyl-5-oxo-7,8-dihydro-6H-pyrazolo[1,5-a][1,3]diazepin-6-yl-1,2,4-triazole-3-carboxamide] | 190 nM
Cc1cc2n(n1)CC[C@H](NC(=O)c1ncn(Cc3ccccn3)n1)C(=O)N2C [Example 651, 1-(2-pyridylmethyl)-N-(6S)-2,4-dimethyl-5-oxo-7,8-dihydro-6H-pyrazolo[1,5-a][1,3]diazepin-6-yl-1,2,4-triazole-3-carboxamide] | 290 nM
CN1C(=O)[C@@H](NC(=O)c2ncn(Cc3ccccn3)n2)CCn2nc(C3CC3)cc21 [Example 652] | 190 nM
CN1C(=O)[C@@H](NC(=O)c2ncn(Cc3ncccc3F)n2)CCn2nccc21 [Example 653, 1-[(3-fluoro-2-pyridyl)methyl]-N-(6S)-4-methyl-5-oxo-7,8-dihydro-6H-pyrazolo[1,5-a][1,3]diazepin-6-yl-1,2,4-triazole-3-carboxamide] | 110 nM
Cc1cc2n(n1)CC[C@H](NC(=O)c1ncn(Cc3ncccc3F)n1)C(=O)N2C [Example 654, 1-[(3-fluoro-2-pyridyl)methyl]-N-(6S)-2,4-dimethyl-5-oxo-7,8-dihydro-6H-pyrazolo[1,5-a][1,3]diazepin-6-yl-1,2,4-triazole-3-carboxamide] | 110 nM
CN1C(=O)[C@@H](NC(=O)c2ncn(Cc3ncccc3F)n2)CCn2nc(C3CC3)cc21 [Example 655] | 140 nM
Cc1cc2n(n1)CC[C@H](NC(=O)c1ncn(Cc3ncccc3Cl)n1)C(=O)N2C [Example 657, 1-[(3-chloro-2-pyridyl)methyl]-N-(6S)-2,4-dimethyl-5-oxo-7,8-dihydro-6H-pyrazolo[1,5-a][1,3]diazepin-6-yl-1,2,4-triazole-3-carboxamide] | 74 nM
CN1C(=O)[C@@H](NC(=O)c2ncn(Cc3ncccc3Cl)n2)CCn2nc(C3CC3)cc21 [Example 658] | 54 nM
Cc1cn2c(n1)N(C)C(=O)[C@H](NC(=O)c1ncn(Cc3ccccc3F)n1)CC2 [Example 659, 1-[(2-fluorophenyl)methyl]-N-(7R)-2,9-dimethyl-8-oxo-6,7-dihydro-5H-imidazo[1,2-a][1,3]diazepin-7-yl-1,2,4-triazole-3-carboxamide] | 35 nM
Cc1cn2c(n1)N(C)C(=O)[C@H](NC(=O)c1ncn(Cc3c(F)cccc3F)n1)CC2 [Example 660, 1-[(2,6-difluorophenyl)methyl]-N-(7R)-2,9-dimethyl-8-oxo-6,7-dihydro-5H-imidazo[1,2-a][1,3]diazepin-7-yl-1,2,4-triazole-3-carboxamide] | 62 nM
Cc1cn2c(n1)N(C)C(=O)[C@H](NC(=O)c1ncn(Cc3cc(F)ccc3F)n1)CC2 [Example 661, 1-[(2,5-difluorophenyl)methyl]-N-(7R)-2,9-dimethyl-8-oxo-6,7-dihydro-5H-imidazo[1,2-a][1,3]diazepin-7-yl-1,2,4-triazole-3-carboxamide] | 57 nM

More lines, now with the values ahead:

Ki | SMILES
63 nM | CN1C(=O)[C@@H](NC(=O)c2ncn(Cc3ccccc3)n2)CCn2nc(CCCN3CCOCC3)cc21 [Example 662]
420 nM | Cc1ncccc1Cn1cnc(C(=O)N[C@H]2CCn3nccc3N(C)C2=O)n1 [Example 663, 1-[(2-methyl-3-pyridyl)methyl]-N-(6S)-4-methyl-5-oxo-7,8-dihydro-6H-pyrazolo[1,5-a][1,3]diazepin-6-yl-1,2,4-triazole-3-carboxamide]
730 nM | Cc1cc2n(n1)CC[C@H](NC(=O)c1ncn(Cc3cccnc3C)n1)C(=O)N2C [Example 664, 1-[(2-methyl-3-pyridyl)methyl]-N-(6S)-2,4-dimethyl-5-oxo-7,8-dihydro-6H-pyrazolo[1,5-a][1,3]diazepin-6-yl-1,2,4-triazole-3-carboxamide]
740 nM | Cc1ncccc1Cn1cnc(C(=O)N[C@H]2CCn3nc(C4CC4)cc3N(C)C2=O)n1 [Example 665]
40 nM | Cc1cc2n(n1)CC[C@H](NC(=O)c1nc3n(n1)[C@@H](c1ccccc1F)CC3)C(=O)N2C [Example 666, (5R)-5-(2-fluorophenyl)-N-[(6S)-2,4-dimethyl-5-oxo-7,8-dihydro-6H-pyrazolo[1,5-a][1,3]diazepin-6-yl]-6,7-dihydro-5H-pyrrolo[1,2-b][1,2,4]triazole-2-carboxamide]
530 nM | Cc1cc2n(n1)CC[C@H](NC(=O)c1nc3n(n1)[C@H](c1ccccc1F)CC3)C(=O)N2C [Example 667, (5S)-5-(2-fluorophenyl)-N-[(6S)-2,4-dimethyl-5-oxo-7,8-dihydro-6H-pyrazolo[1,5-a][1,3]diazepin-6-yl]-6,7-dihydro-5H-pyrrolo[1,2-b][1,2,4]triazole-2-carboxamide]
22 nM | CN1C(=O)[C@@H](NC(=O)c2nc3n(n2)[C@@H](c2ccccc2F)CC3)CCn2nccc21 [Example 668, (5R)-5-(2-fluorophenyl)-N-[(6S)-4-methyl-5-oxo-7,8-dihydro-6H-pyrazolo[1,5-a][1,3]diazepin-6-yl]-6,7-dihydro-5H-pyrrolo[1,2-b][1,2,4]triazole-2-carboxamide]
610 nM | CN1C(=O)[C@@H](NC(=O)c2nc3n(n2)[C@H](c2ccccc2F)CC3)CCn2nccc21 [Example 669, (5S)-5-(2-fluorophenyl)-N-[(6S)-4-methyl-5-oxo-7,8-dihydro-6H-pyrazolo[1,5-a][1,3]diazepin-6-yl]-6,7-dihydro-5H-pyrrolo[1,2-b][1,2,4]triazole-2-carboxamide]
